Results reported in the OPERA property sets (Mansouri et al. 2018).

In order of rising boiling point:
1. CC(F)(F)F  -47.5 °C
2. CC(C)N  31.7 °C
3. ClCCBr  107 °C
4. CC1CCCC1(C)C (configuration not stated)  114 °C
5. CC(=O)O  118 °C
6. CC(Cl)CO (configuration not stated)  134 °C
7. CCOC(=O)COC  142 °C
8. CCCCCCCCF  142 °C
9. C1CCC2NC2C1 (configuration not stated)  150 °C
10. CCCC(C)(C)CC(C)C  151 °C
11. CC(C)c1cccs1  153 °C
12. C=Cc1ccccc1C  170 °C
13. N#CCCCl  176 °C
14. CCCCCCCBr  179 °C
15. CC1CCCC(Br)C1 (configuration not stated)  181 °C
16. CCc1cccc(CC)c1  181 °C
17. C=C(C)c1cccc(C)c1  185 °C
18. CCOC(N)=O  185 °C
19. OCCN1CCCCC1  202 °C
20. ClCCOc1ccccc1  218 °C
21. Cc1ccc([N+](=O)[O-])cc1  238 °C
22. Cc1ccccc1N.Cl  242 °C
23. O=C(CCl)c1ccccc1  247 °C
24. Cn1ccccc1=O  250 °C
25. CCCCCc1ccc(O)cc1  250 °C
26. CCCCOC(=O)CC(=O)OCCCC  252 °C
27. CC1(c2ccccc2)CCOCO1 (configuration not stated)  256 °C
28. CC(C)(C)c1ccc(O)c(O)c1  285 °C
29. c1ccc(N=Nc2ccccc2)cc1  293 °C
30. CCOC(=O)c1ccc(OC)c(OC)c1  296 °C
31. CN(C(=O)N(C)c1ccccc1)c1ccccc1  350 °C
32. Oc1ccc2ncccc2c1  360 °C
33. O=C1c2ccccc2C(=O)c2ccccc21  377 °C

In order of falling melting point:
1. O=C1c2ccccc2C(=O)c2ccccc21  286 °C
2. C[C@@H]1C[C@H]2[C@@H]3CCC4=CC(=O)C=C[C@]4(C)[C@@]3(F)[C@@H](O)C[C@]2(C)[C@@]1(O)C(=O)CO  248 °C
3. COc1ccc2c3c([nH]c2c1)[C@H]1C[C@H]2[C@H](C[C@@H](O)[C@H](OC)[C@H]2C(=O)O)CN1CC3  242 °C
4. C=C(C)[C@]1(O)C2OC(=O)C1[C@]1(O)[C@H]3O[C@H]3[C@]3(CO3)[C@]1(C)C2O (some centres not stated)  225 °C
5. Cc1ccccc1N.Cl  215 °C
6. Oc1ccc2ncccc2c1  195 °C
7. O=C1c2cccc(O)c2C(=O)c2c(O)cccc21  193 °C
8. c1ccc2c(c1)ccc1c3ccccc3sc21  189 °C
9. CC1=CCCC(C)(C)C1/C=C/C(C)=C/C=C/C(C)=C/C=C/C=C(C)/C=C/C=C(C)/C=C/C1=C(C)CCCC1(C)C (configuration not stated)  188 °C
10. CC1=C2[C@H]3OC(=O)[C@@H](C)[C@@H]3CC[C@@]2(C)C=CC1=O  175 °C
11. Cc1cccc(C(=O)O)c1S(=O)(=O)NC(=O)Nc1nc(OCC(F)(F)F)nc(N(C)C)n1  162 °C
12. CC1Cc2ccccc2N1NC(=O)c1ccc(Cl)c(S(N)(=O)=O)c1 (configuration not stated)  161 °C
13. CCCCc1c(C)nc(NCC)nc1O  160 °C
14. O[C@@H]1[C@H]2CC[C@H](C2)[C@@H]1O  139 °C
15. O=C(O)[C@H](O)[C@@H](O)[C@H](O)[C@H](O)CO  131 °C
16. Cc1cc(O)ccc1[N+](=O)[O-]  128 °C
17. CN(C(=O)N(C)c1ccccc1)c1ccccc1  122 °C
18. NC(N)=O.O=P(O)(O)O  120 °C
19. CC1=NN(c2ccc([N+](=O)[O-])cc2)C(=O)C1[N+](=O)[O-] (configuration not stated)  116 °C
20. O=[N+]([O-])c1cccc2cccc(Cl)c12  95.8 °C
21. O=CCC(O)[C@H](O)CO (stereo in doubt)  91 °C
22. OCC(F)(F)C(F)(F)C(F)(F)CO  79.5 °C
23. c1ccc(N=Nc2ccccc2)cc1  68.2 °C
24. CCCCCCCCCCCCCCCCOCC(O)CO (configuration not stated)  64 °C
25. CNC(=S)NC  62 °C
26. O=C(CCl)c1ccccc1  56.5 °C
27. CC(C)(C)c1ccc(O)c(O)c1  54.3 °C
28. Cc1ccc([N+](=O)[O-])cc1  51.6 °C
29. CCOC(N)=O  49 °C
30. CCOC(=O)c1ccc(OC)c(OC)c1  43.5 °C
31. CC1(c2ccccc2)CCOCO1 (configuration not stated)  37.5 °C
32. O[C@@H]1CC[C@H](O)C1  35.5 °C
33. O=C1CCCCCCCC1  34 °C
34. Cn1ccccc1=O  31 °C
35. ClCCOc1ccccc1  28 °C
36. CCCCCc1ccc(O)cc1  23 °C
37. C1CCC2NC2C1 (configuration not stated)  21 °C
38. OCCN1CCCCC1  17.9 °C
39. CC(=O)O  16.6 °C
40. ClCCBr  -16.7 °C
41. CC1CCCC1(C)C (configuration not stated)  -21.6 °C
42. N#CCCCCCC#N  -31.4 °C
43. N#CCCCl  -51 °C
44. CCCCCCCBr  -58 °C
45. C=CC(=O)OCCN(CC)CC  -60 °C
46. C=Cc1ccccc1C  -68.5 °C
47. CCCCOC(=O)CC(=O)OCCCC  -83 °C
48. CCc1cccc(CC)c1  -83.9 °C
49. CC(C)N  -95.1 °C
50. CC(F)(F)F  -111 °C

In order of falling log10 Henry constant (atm·m³/mol):
1. ClCCBr  -3.04
2. Cc1ccc([N+](=O)[O-])cc1  -5.25
3. CC(=O)O  -7
4. Cc1cc(O)ccc1[N+](=O)[O-]  -7.79

In order of rising log10 vapour pressure (mmHg):
1. c1ccc2c(c1)ccc1c3ccccc3sc21  -6.94
2. O=C1c2ccccc2C(=O)c2ccccc21  -6.94
3. CCCCc1c(C)nc(NCC)nc1O  -5.7
4. c1ccc(N=Nc2ccccc2)cc1  -3.44
5. O=C(CCl)c1ccccc1  -2.27
6. Cc1ccc([N+](=O)[O-])cc1  -1.8
7. CCOC(N)=O  -0.582
8. CCc1cccc(CC)c1  0.0531
9. CCCCCCCBr  0.105
10. C=Cc1ccccc1C  0.268
11. CC(Cl)CO (configuration not stated)  0.72
12. CCCCCCCCF  0.772
13. CC(=O)O  1.2
14. ClCCBr  1.52
15. CC(C)N  2.76
16. CC(F)(F)F  3.98

For CC(=O)O, the ready biodegradability was “readily biodegradable”.
In the case of CC1CC(CC2CCC(N)C(C)C2)CCC1N (configuration not stated), the ready biodegradability is reported as “not readily biodegradable”.
For Cc1ccc([N+](=O)[O-])cc1, the ready biodegradability was “not readily biodegradable”.
In the case of Cc1cc(O)ccc1[N+](=O)[O-], the ready biodegradability is reported as “not readily biodegradable”.
For CCc1cccc(CC)c1, the ready biodegradability was “not readily biodegradable”.
For Nc1c(Oc2ccc(Br)cc2)cc(O)c2c1C(=O)c1ccccc1C2=O, the ready biodegradability was “not readily biodegradable”.
With c1ccc(N=Nc2ccccc2)cc1 the ready biodegradability was “not readily biodegradable”.
In the case of CC(=O)c1ccc(-n2ccnc2)cc1, the ready biodegradability is reported as “readily biodegradable”.
For CCOC(N)=O, the ready biodegradability was “not readily biodegradable”.
With O=C1c2ccccc2C(=O)c2ccccc21 the ready biodegradability was “readily biodegradable”.

In order of falling log10 Koc (L/kg):
1. c1ccc2c(c1)ccc1c3ccc4ccccc4c3[nH]c21  6.02
2. O=C1c2ccccc2C(=O)c2ccccc21  3.57
3. c1ccc(N=Nc2ccccc2)cc1  3.3

Work on CCc1cccc(CC)c1 yielded a log10 biodegradation half-life (days) of 0.845.
